In patent publication US20230123334A1, “AMINO LIPID COMPOUND, PREPARATION METHOD THEREFOR, AND APPLICATION THEREOF” (SHENZHEN SHENXIN BIOTECHNOLOGY CO., LTD., priority 2020, published 2023):

System: HEK293 cells
Assay: Preliminary screening as DNA vectors, GFP transfection of HEK293 cells
Type: cell-based
Conditions: amino lipid/DOPE liposome with 75 ng plasmid DNA (psin-EGFP-IRES-Puro); number of GFP-expressing cells divided by total nuclei (Hoechst)
Summary of the method: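 First, amino lipid and DOPE were vortexed in sodium acetate buffer (pH 5.6) to form liposomes. Next, these were held with 75 ng EGFP plasmid at room temperature for 30 min. Finally, HEK293 cells were added, cultured at 37° C., Hoechst-stained, and GFP+/total nuclei scored by imaging.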

SMILES | Absolute DNA transfection efficiency in HEK293 cells
CCCCCCCCCCCCCCSc1nc(NCCCCCCCCC)nc(NCCCN(C)C)n1 [S14N9 D6] | 43.9%
CCCCCCCCCCCCCCSc1nc(NCCCCCCCCC)nc(NCCN(CC)CC)n1 [S14N9 D7] | 10.6%
CCCCCCCCCCCCCCSc1nc(NCCCCCCCCC)nc(NCCCN2CCOCC2)n1 [S14N9 D8] | 10.7%
CCCCCCCCCCCCCCSc1nc(NCCCCCCCCC)nc(NCCCN2CCN(C)CC2)n1 [S14N9 D9] | 16.7%
CCCCCCCCCCCCCCSc1nc(NCCCCCCCCC)nc(NCC2CCN(C)CC2)n1 [S14N9 D10] | 17.6%
CCCCCCCCCCCCCCSc1nc(NCCCCCCCCCCC)nc(NCCN(C)C)n1 [S14N11 D1] | 11.8%
CCCCCCCCCCCCCCSc1nc(NCCCCCCCCCCC)nc(NCCN2CCOCC2)n1 [S14N11 D2] | 12.5%
CCCCCCCCCCCCCCSc1nc(NCCCCCCCCCCC)nc(NCCN2CCCC2)n1 [S14N11 D3] | 25.2%
CCCCCCCCCCCCCCSc1nc(NCCCCCCCCCCC)nc(NCCN2CCCCC2)n1 [S14N11 D4] | 3.1%
CCCCCCCCCCCCCCSc1nc(NCCCCCCCCCCC)nc(NCCN2CCN(C)CC2)n1 [S14N11 D5] | 13.3%
CCCCCCCCCCCCCCSc1nc(NCCCCCCCCCCC)nc(NCCCN(C)C)n1 [S14N11 D6] | 17.0%
CCCCCCCCCCCCCCSc1nc(NCCCCCCCCCCC)nc(NCCN(CC)CC)n1 [S14N11 D7] | 8.6%
CCCCCCCCCCCCCCSc1nc(NCCCCCCCCCCC)nc(NCCCN2CCOCC2)n1 [S14N11 D8] | 2.2%
CCCCCCCCCCCCCCSc1nc(NCCCCCCCCCCC)nc(NCCCN2CCN(C)CC2)n1 [S14N11 D9] | 10.2%
CCCCCCCCCCCCCCSc1nc(NCCCCCCCCCCC)nc(NCC2CCN(C)CC2)n1 [S14N11 D10] | 9.0%
CCCCCCCCCCCCCCSc1nc(NCCCCCCCCCCCC)nc(NCCN(C)C)n1 [S14N12 D1] | 15.3%
CCCCCCCCCCCCCCSc1nc(NCCCCCCCCCCCC)nc(NCCN2CCOCC2)n1 [S14N12 D2] | 1.6%
CCCCCCCCCCCCCCSc1nc(NCCCCCCCCCCCC)nc(NCCN2CCCC2)n1 [S14N12 D3] | 21.0%
CCCCCCCCCCCCCCSc1nc(NCCCCCCCCCCCC)nc(NCCN2CCCCC2)n1 [S14N12 D4] | 3.8%
CCCCCCCCCCCCCCSc1nc(NCCCCCCCCCCCC)nc(NCCN2CCN(C)CC2)n1 [S14N12 D5] | 9.8%
CCCCCCCCCCCCCCSc1nc(NCCCCCCCCCCCC)nc(NCCCN(C)C)n1 [S14N12 D6] | 6.3%

SMILES | Absolute DNA transfection efficiency in HEK293 cells
CCCCCCCCCCCCCCSc1nc(NCCCCCCCCCCCC)nc(NCCN(CC)CC)n1 [S14N12 D7] | 1.1%
CCCCCCCCCCCCCCSc1nc(NCCCCCCCCCCCC)nc(NCCCN2CCOCC2)n1 [S14N12 D8] | 2.1%
CCCCCCCCCCCCCCSc1nc(NCCCCCCCCCCCC)nc(NCCCN2CCN(C)CC2)n1 [S14N12 D9] | 4.1%
CCCCCCCCCCCCCCSc1nc(NCCCCCCCCCCCC)nc(NCC2CCN(C)CC2)n1 [S14N12 D10] | 5.8%
CCCCCCCCCCCCCCSc1nc(NCCCCCCCCCCCCC)nc(NCCN(C)C)n1 [S14N13 D1] | 1.1%
CCCCCCCCCCCCCCSc1nc(NCCCCCCCCCCCCC)nc(NCCN2CCOCC2)n1 [S14N13 D2] | 0.0%
CCCCCCCCCCCCCCSc1nc(NCCCCCCCCCCCCC)nc(NCCN2CCCC2)n1 [S14N13 D3] | 9.1%
CCCCCCCCCCCCCCSc1nc(NCCCCCCCCCCCCC)nc(NCCN2CCCCC2)n1 [S14N13 D4] | 3.9%
CCCCCCCCCCCCCCSc1nc(NCCCCCCCCCCCCC)nc(NCCN2CCN(C)CC2)n1 [S14N13 D5] | 1.9%
CCCCCCCCCCCCCCSc1nc(NCCCCCCCCCCCCC)nc(NCCCN(C)C)n1 [S14N13 D6] | 2.6%
CCCCCCCCCCCCCCSc1nc(NCCCCCCCCCCCCC)nc(NCCN(CC)CC)n1 [S14N13 D7] | 2.8%
CCCCCCCCCCCCCCSc1nc(NCCCCCCCCCCCCC)nc(NCCCN2CCOCC2)n1 [S14N13 D8] | 0.3%
CCCCCCCCCCCCCCSc1nc(NCCCCCCCCCCCCC)nc(NCCCN2CCN(C)CC2)n1 [S14N13 D9] | 1.4%
CCCCCCCCCCCCCCSc1nc(NCCCCCCCCCCCCC)nc(NCC2CCN(C)CC2)n1 [S14N13 D10] | 2.2%
CCCCCCCCCCCCCCCNc1nc(NCCN(C)C)nc(SCCCCCCCCCCCCCC)n1 [S14N15 D1] | 0.4%
CCCCCCCCCCCCCCCNc1nc(NCCN2CCOCC2)nc(SCCCCCCCCCCCCCC)n1 [S14N15 D2] | 0.1%
CCCCCCCCCCCCCCCNc1nc(NCCN2CCCC2)nc(SCCCCCCCCCCCCCC)n1 [S14N15 D3] | 1.0%
CCCCCCCCCCCCCCCNc1nc(NCCN2CCCCC2)nc(SCCCCCCCCCCCCCC)n1 [S14N15 D4] | 0.4%
CCCCCCCCCCCCCCCNc1nc(NCCN2CCN(C)CC2)nc(SCCCCCCCCCCCCCC)n1 [S14N15 D5] | 0.4%
CCCCCCCCCCCCCCCNc1nc(NCCCN(C)C)nc(SCCCCCCCCCCCCCC)n1 [S14N15 D6] | 0.8%
CCCCCCCCCCCCCCCNc1nc(NCCN(CC)CC)nc(SCCCCCCCCCCCCCC)n1 [S14N15 D7] | 1.1%

SMILES | Absolute DNA transfection efficiency in HEK293 cells
CCCCCCCCCCCCCCCNc1nc(NCCCN2CCOCC2)nc(SCCCCCCCCCCCCCC)n1 [S14N15 D8] | 0.3%
CCCCCCCCCCCCCCCNc1nc(NCCCN2CCN(C)CC2)nc(SCCCCCCCCCCCCCC)n1 [S14N15 D9] | 0.7%
CCCCCCCCCCCCCCCNc1nc(NCC2CCN(C)CC2)nc(SCCCCCCCCCCCCCC)n1 [S14N15 D10] | 0.7%
CCCCCCCCCCCCCCCCNc1nc(NCCN(C)C)nc(SCCCCCCCCCCCCCC)n1 [S14N16 D1] | 0.7%
CCCCCCCCCCCCCCCCNc1nc(NCCN2CCOCC2)nc(SCCCCCCCCCCCCCC)n1 [S14N16 D2] | 0.0%
CCCCCCCCCCCCCCCCNc1nc(NCCN2CCCC2)nc(SCCCCCCCCCCCCCC)n1 [S14N16 D3] | 1.3%
CCCCCCCCCCCCCCCCNc1nc(NCCN2CCCCC2)nc(SCCCCCCCCCCCCCC)n1 [S14N16 D4] | 1.9%
CCCCCCCCCCCCCCCCNc1nc(NCCN2CCN(C)CC2)nc(SCCCCCCCCCCCCCC)n1 [S14N16 D5] | 0.9%
CCCCCCCCCCCCCCCCNc1nc(NCCCN(C)C)nc(SCCCCCCCCCCCCCC)n1 [S14N16 D6] | 0.8%
CCCCCCCCCCCCCCCCNc1nc(NCCN(CC)CC)nc(SCCCCCCCCCCCCCC)n1 [S14N16 D7] | 1.3%
CCCCCCCCCCCCCCCCNc1nc(NCCCN2CCOCC2)nc(SCCCCCCCCCCCCCC)n1 [S14N16 D8] | 0.1%
CCCCCCCCCCCCCCCCNc1nc(NCCCN2CCN(C)CC2)nc(SCCCCCCCCCCCCCC)n1 [S14N16 D9] | 0.9%
CCCCCCCCCCCCCCCCNc1nc(NCC2CCN(C)CC2)nc(SCCCCCCCCCCCCCC)n1 [S14N16 D10] | 0.7%
CCCCCCCCCCCCCCCCCCNc1nc(NCCN(C)C)nc(SCCCCCCCCCCCCCC)n1 [S14N18 D1] | 0.9%
CCCCCCCCCCCCCCCCCCNc1nc(NCCN2CCOCC2)nc(SCCCCCCCCCCCCCC)n1 [S14N18 D2] | 0.0%
CCCCCCCCCCCCCCCCCCNc1nc(NCCN2CCCC2)nc(SCCCCCCCCCCCCCC)n1 [S14N18 D3] | 1.7%
CCCCCCCCCCCCCCCCCCNc1nc(NCCN2CCCCC2)nc(SCCCCCCCCCCCCCC)n1 [S14N18 D4] | 0.7%
CCCCCCCCCCCCCCCCCCNc1nc(NCCN2CCN(C)CC2)nc(SCCCCCCCCCCCCCC)n1 [S14N18 D5] | 0.6%
CCCCCCCCCCCCCCCCCCNc1nc(NCCCN(C)C)nc(SCCCCCCCCCCCCCC)n1 [S14N18 D6] | 0.9%
CCCCCCCCCCCCCCCCCCNc1nc(NCCN(CC)CC)nc(SCCCCCCCCCCCCCC)n1 [S14N18 D7] | 1.2%
CCCCCCCCCCCCCCCCCCNc1nc(NCCCN2CCOCC2)nc(SCCCCCCCCCCCCCC)n1 [S14N18 D8] | 0.1%
